Experiments:
Assay type in all cases: cell-based
Claudin-5/Occludin [1] = assay: Tumor cell culture co-incubated with bEnd.3 cells (U87MG removed), Claudin-5/Occludin immunofluorescence; conditions: tumor cell culture kept, 10 μM, 24 hours, FIG. 17
Protocol: FIG. 17: Co-incubation of a tumor cell culture and bEnd.3 cells in vitro, and immunofluorescent staining of a blood-brain barrier tight junction protein of Claudin-5/Occludin. A Transwell model of co-incubation of brain microvascular endothelial cells bEnd.3 and glioma cells U87 MG simulates a pathological blood-brain barrier. Once a pathological blood-brain barrier model was formed, U87MG glioma cells in the outer chamber of Transwell were removed, while the tumor cell cultures were remained. Axitinib (10 μM) and an Axitinib analog of phosphatidylinositol kinase (PI3K) inhibitor LY294002 (10 μM) were added to the Transwell chamber. After 24 hours, immunofluorescent staining was performed on bEnd.3 cells on the Transwell chamber membrane. A physiological blood-brain barrier simulated by a Transwell model of brain microvascular endothelial cell bEnd.3 was used as a positive control.
The physiological blood-brain barrier and the pathological blood-brain barrier as constructed in Method 1 and Method 2 in the Example 1 were used as models, respectively. Once a pathological blood-brain barrier model was formed, U87MG glioma cells in the outer chamber of Transwell were removed, while the tumor cell cultures were remained. Axitinib (10 μM) and an Axitinib analog of phosphatidylinositol kinase (PI3K) inhibitor LY294002 (10 μM) were added to the Transwell chamber. […]

Claudin-5/Occludin [2] = assay: Pathological blood-brain barrier Transwell model, Claudin-5/Occludin immunofluorescence; conditions: 10 μM, 24 hours; FIG. 12
Protocol: A Transwell model of co-incubation of brain microvascular endothelial cells bEnd.3 and glioma cells U87 MG simulates a pathological blood-brain barrier. Axitinib (10 μM), an Axitinib analog of phosphatidylinositol kinase (PI3K) inhibitor LY294002 (10 μM), protein kinase B (AKT) agonist SC79 (10 μM) were added into the Transwell chamber. After 24 hours, immunofluorescent stain was performed on bEnd.3 cells on the Transwell chamber membrane. A physiological blood-brain barrier simulated by a Transwell model of brain microvascular endothelial cell bEnd.3 was used as a positive control.
U87 MG glioma cells were used as brain tumor model cells. 1.5 mL suspension of well-grown U87 MG cell suspension was inoculated in a 12-well plate at a cell density of 2×10^5/well. Incubation was continued at 37° C. and 5% CO2 until the cells adhere. Then, the physiological blood-brain barrier as constructed by Method 1 in the Example 1, i.e., the Transwell chamber with bEnd.3 cells grown, was transferred to the 12-well plate with U87 MG cells grown. Co-culture was further continued for 24 hours to obtain a cell model of pathological blood-brain barrier.

Claudin-5 = assay: Pathological blood-brain barrier Transwell model (bEnd.3 co-incubated with U87 MG), Claudin-5 immunofluorescence; conditions: bEnd.3/U87 MG co-incubation, 24 hours; FIG. 8
Protocol: A transwell model of co-incubation of brain microvascular endothelial cells bEnd.3 and glioma cells U87 MG simulates a pathological blood-brain barrier. Axitinib was allowed to act on the Transwell chamber. After 24 hours, immunofluorescent staining was performed on bEnd.3 cells on the Transwell chamber membrane. A physiological blood-brain barrier simulated by a Transwell model of brain microvascular endothelial cell bEnd.3 was used as a positive control group. […] Panel B is the result of fluorescence semi-quantitative analysis of Claudin-5 expression by Image J (n=3).
Axitinib was added to the Transwell chamber. After the drug was allowed to act for 24 hours, the Transwell cell with bEnd.3 cells grown was transferred to another 12-well plate, washed with PBS for three times, fixed with 4% formaldehyde, and blocked with 10% bovine serum albumin for 30 minutes. Thereafter, Claudin-5 primary antibody was added and incubated at 4° C. overnight, and finally was incubated with fluorescently-labeled secondary antibody for 1 hour. The nucleus was counterstained with DAPI.

U87 MG glioma cells = assay: Cell survival rate by tetrazolium blue colorimetry, U87 MG cells; conditions: U87MG cells, 10 μM (therapeutic dose); FIGS. 13 and 14
Protocol: FIG. 13: Evaluation of cell survival rate in a Transwell model. A Transwell model of co-incubation of brain microvascular endothelial cells bEnd.3 and glioma cells U87 MG simulates a pathological blood-brain barrier. Axitinib (10 μM) and an Axitinib analog of phosphatidylinositol kinase (PI3K) inhibitor LY294002 (10 μM) were added into the Transwell chamber. After 24 hours, the survival rate of bEnd.3 cells in the Transwell chamber (Panel A) and U87 MG cells in the Transwell outer chamber (Panel B) were detected by tetrazolium blue colorimetry (n=3).
FIG. 14: Evaluation of Cytotoxicity for Axitinib and an analog thereof. […] Cell survival rate was detected by tetrazolium blue colorimetry. […]
The physiological blood-brain barrier and the pathological blood-brain barrier as constructed in Method 1 and Method 2 in the Example 1 were used as models, respectively. […] Absorbance at 570 nm was measured with a microplate reader. The survival rate of cells was calculated according to the following formula: Survival rate of cells (%)=(absorbance value of a test group/absorbance value of a control group)×100%
In addition, bEnd.3 cells and U87 MG glioma cells were used as model cells to evaluate the cytotoxicity of Axitinib and an Axitinib analog of phosphatidylinositol kinase (PI3K) inhibitor LY294002 with the tetrazolium blue colorimetric method. […] Absorbance at 570 nm was measured with a microplate reader.

CNC(=O)c1ccccc1Sc1ccc2c(/C=C/c3ccccn3)n[nH]c2c1 [Axitinib, N-methyl-2-((3-((1E)-2-(pyridine-2-yl)ethenyl)-1H-indazol-6-yl)sulfanyl)benzamide]
Expression of tight junction protein Claudin-5/Occludin (Claudin-5/Occludin [1]): the degree to which pathological blood-brain barrier tight junction protein of Claudin-5/Occludin is down-regulated is reduced
Expression of tight junction protein Claudin-5/Occludin (Claudin-5/Occludin [2]): reduce the degree to which pathological blood-brain barrier tight junction protein of Claudin-5/Occludin is down-regulated
Expression of tight junction protein Claudin-5 (Claudin-5): reduce down-regulation of expression of the blood-brain barrier tight junction protein of Claudin-5
Cytotoxicity (U87 MG glioma cells): do not produce significant cytotoxicity

— US12419875B2, “Use of Axitinib and analogs thereof in preparing blood-brain barrier permeability regulator” (ZHEJIANG UNIVERSITY, priority 2018, dated 2025)
